# Laboratory results published in the COVID Moonshot data (paper PMC7615835).
# “And” between values parts separate entries of the source, which are not always exact repeats. Equal entries are not always repeated.
# Biological target: SARS-CoV-2 Main Protease (SARS-CoV-2) (UniProt P0DTD1)
row,SMILES,IC50
1,O=C1NC(c2ccc(Cl)c(Cl)c2)C(=O)N1c1cncc2ccccc12 (centres undefined),8.46 µM
2,Cc1ccncc1NC(=O)Cc1cc(Cl)cc(OCc2cc(-c3ccc(Cl)cc3)no2)c1,> 99.5 µM
3,O=C(CCl)N1CCCN(S(=O)(=O)c2cc(F)ccc2F)CC1,12.1 µM
4,O=C(CC1(C(=O)Nc2cncc3ccccc23)CCOc2ccc(Cl)cc21)N1CCN(C2CCOC2)CC1 (centres undefined),6.68 µM
5,CS(=O)(=O)Cc1ccc(N(C(=O)c2cocn2)C(C(=O)NCCc2cccc(F)c2)c2cccnc2)cc1 (centres undefined),27.7 µM
6,C=CC(=O)N[C@H](Cc1ccccc1)C(=O)NCCN(C)C (stereo in doubt),> 99.5 µM
7,C=CC(=O)N(c1ccc(C(C)(C)C)cc1)C(C(=O)Nc1ccc(OC)cc1C)c1cccnc1 (centres undefined),> 99 µM
8,COC[C@]1(C(=O)Nc2cncc3ccccc23)CCOc2cc(Cl)c(Cl)cc21 (stereo in doubt),2.38 µM and 4.36 µM
9,Cc1ccncc1N1CCC(c2cccc(Cl)c2)C1=O (centres undefined),44.7 µM
10,COCC1(C(=O)Nc2cncc3ccccc23)CCOc2cc(Cl)c(Cl)cc21 (centres undefined),4.04 µM
11,O=C(Cc1cc(Cl)cc(Nc2ncc(Br)c(C(F)(F)F)n2)c1)Nc1cncc2ccccc12,1.84 µM
12,CN(C)C(C(=O)Nc1cncc2ccccc12)c1ccc(Cl)c(Cl)c1 (centres undefined),4.27 µM
13,CN(C)S(=O)(=O)N1Cc2ccc(Cl)cc2C(C(=O)Nc2cnccc2C(F)(F)F)C1 (centres undefined),28.8 µM
14,Cn1cncc1CN(C(=O)CC1(C(=O)Nc2cncc3ccccc23)CCOc2ccc(Cl)cc21)C1CC1 (centres undefined),6.1 µM
15,O=C(CCl)N1CCC(c2nc(-c3cccnc3)nc3ccccc23)CC1,18.2 µM
16,Cc1nc(Br)ccc1Nc1cc(Cl)cc(CC(=O)Nc2cncc3ccccc23)c1,2.82 µM
17,O=C(c1cc(=O)[nH]c2ccccc12)N1CCN(Cc2cccc(Cl)c2)CC1,4.57 µM
18,CCn1nccc1C(=O)N1Cc2ccc(Cl)cc2C2(CCN(c3cncc4ccccc34)C2=O)C1 (centres undefined),0.297 µM
19,COc1ccc(C2CC(c3cccs3)=NN2C(=O)CCl)cc1OC (centres undefined),1.75 µM and 2 µM
20,O=C(Cn1nnc2ccccc21)N(Cc1ccsc1)c1ccc(N2CCOCC2)cc1,11.6 µM
21,O=C(Cc1cc(Cl)cc(Nc2nc(Cl)nc3nc[nH]c23)c1)Nc1cncc2ccccc12,2.37 µM
22,O=C(Nc1cncc2cc(CN3CC4(CNC4)C3)ccc12)C1CCOc2ccc(Cl)cc21 (centres undefined),1.44 µM
23,CC(C)(C)Oc1ccncc1NC(=O)Cc1cccc(Cl)c1,22.9 µM
24,CN1C(=O)CCc2cc(N(C(=O)c3cnc[nH]3)C(C(=O)NCCc3cccc(F)c3)c3cccnc3)ccc21 (centres undefined),> 99 µM
25,CC(C)(C)c1ccc(N(C(=O)c2ccns2)C(C(=O)NCCc2cccc(F)c2)c2cccnc2)cc1 (centres undefined),51.1 µM

row,SMILES,IC50
1,COC(OC)C(=O)N1CCN(Cc2cccc(Cl)c2)CC1,93.9 µM and 94.3 µM
2,CCN(C(=O)c1ccco1)C(C(=O)NCCc1cccc(F)c1)c1cccnc1 (centres undefined),> 99.5 µM
3,Cc1cc(O)cc(C)c1C[C@H](NC(=O)[C@H](N)CCCNC(=N)N)C(=O)N[C@@H](CCCCN)C(=O)N[C@@H](Cc1ccccc1)C(N)=O (stereo in doubt),> 99 µM
4,CC(C)(C)c1ccc(N(C(=O)c2ocnc2C(F)(F)F)C(C(=O)NCCc2cccc(F)c2)c2cccnc2)cc1 (centres undefined),> 99.5 µM
5,Cc1nc(Nc2cc(Cl)cc(CC(=O)Nc3cncc4ccccc34)c2)ccc1Br,2.07 µM
6,COc1ccccc1OCCNC(=O)c1cc(=O)cc[nH]1,> 99.5 µM
7,CC(C)(CNC(=O)C1CNC(=O)N1)N1CCc2ccccc2C1 (centres undefined),> 99.5 µM
8,O=C(c1cccc(N2CCCNC2=O)c1)N1CCC(C2CCNC2)CC1 (centres undefined),> 99.5 µM
9,O=C(Cc1cc(Cl)cc(Nc2ccc([N+](=O)[O-])cc2C(F)(F)F)c1)Nc1cncc2ccccc12,2.01 µM
10,O=C(Cc1cc(Cl)cc(Nc2c(F)cc(F)cc2[N+](=O)[O-])c1)Nc1cncc2ccccc12,2.04 µM
11,O=C(Nc1cnn2ccccc12)C1CCS(=O)(=O)c2ccc(Cl)cc21 (centres undefined),3.89 µM
12,COc1ccc2cncc(NC(=O)[C@@]3(OC)CCOc4ccc(Cl)cc43)c2c1 (stereo in doubt),4.18 µM
13,Cn1cc(C(=O)N(c2ccc(C(C)(C)C)cc2)C(C(=O)NCCc2cccc(F)c2)c2cccnc2)ncc1=O (centres undefined),> 99.5 µM
14,CC(O)Cc1c(C(=O)N(c2ccc(C(C)(C)C)cc2)C(C(=O)NCCc2cccc(F)c2)c2cccnc2)[nH][nH]c1=O (centres undefined),> 99.5 µM
15,COc1cccc(CNc2cc(Cl)cc(CC(=O)Nc3cncc4ccccc34)c2)c1OC,2.48 µM
16,COc1ccc(C(Cc2cnn(C)c2)C(=O)Nc2c[nH]c3ccccc23)cc1 (centres undefined),> 99.5 µM
17,O=C(NC1N=Nc2ccccc21)C1CCOc2ccc(Cl)cc21 (centres undefined),> 99.5 µM
18,O=C(Nc1cncc2ccccc12)C1CN(CC(F)(F)F)Cc2ccc(Cl)cc21 (centres undefined),3.41 µM
19,Cc1nn(C)c2[nH]nc(NC(=O)Cc3cccc(Cl)c3)c12,> 99.5 µM
20,C[C@H]1C[C@H](C(=O)Nc2cncc3ccccc23)c2cc(Cl)ccc2O1 (stereo in doubt),52.1 µM
21,N#Cc1cc(Cl)cc(NC(=O)Nc2cccnc2)c1,> 99 µM
22,Cn1nncc1CC(=O)NC(c1ccccc1)c1nc2ccccc2n1C (centres undefined),35.7 µM
23,O=C(NCc1ccc(Cl)cc1CN1CCN(C(=O)CCl)CC1)[C@@H]1CCCOC1 (stereo in doubt),12.1 µM
24,Cc1cn(-c2cc(Nc3cc(Cl)cc(CC(=O)Nc4cncc5ccccc45)c3)cc(C(F)(F)F)c2)cn1,2.53 µM
25,O=C(Cc1cccc(Cl)c1)Nc1cncc2c1OCCC2,10.1 µM and 14 µM

row,SMILES,IC50
1,O=C(Cc1cc(Cl)cc(Nc2ccc(Br)c(Cl)c2Cl)c1)Nc1cncc2ccccc12,2.41 µM
2,CC1(C)OB(c2cnc(C#N)nc2)OC1(C)C,> 99.5 µM
3,COc1cc(CNc2cc(Cl)cc(CC(=O)Nc3cncc4ccccc34)c2)ccc1O,1.88 µM
4,CN1C(=O)CC(O)(C(=O)Nc2cncc3ccccc23)c2cc(Cl)ccc21 (centres undefined),20.7 µM
5,O=C(Cc1cc(Cl)cc(Nc2cc(Cl)c(O)c(Cl)c2)c1)Nc1cncc2ccccc12,6.9 µM
6,CC(C)(C)c1ccc(N(C(=O)c2ccn[nH]2)C(C(=O)NCCc2cccc(F)c2)c2cccnc2)cc1 (centres undefined),1.78 µM
7,O=C(Cc1cc(Cl)cc(Nc2cccc(I)c2)c1)Nc1cncc2ccccc12,2.22 µM
8,CO[C@@H]1COC[C@H]1n1cc(C(=O)N(c2ccc(C(C)(C)C)cc2)C(C(=O)NCCc2cccc(F)c2)c2cccnc2)nn1 (stereo in doubt),> 99.5 µM
9,COc1cc(C(=O)N(c2ccc(C(C)(C)C)cc2)C(C(=O)NCCc2cccc(F)c2)c2cccnc2)sn1 (centres undefined),> 99.5 µM
10,O=C(Nc1ccc(N(C(=O)c2cocn2)C(C(=O)NCCc2cccc(F)c2)c2cccnc2)cc1)NC1CC1 (centres undefined),> 99.5 µM
11,O=C(Cc1cc(Cl)cc(NCc2ccc(OC(F)(F)F)cc2)c1)Nc1cncc2ccccc12,5.52 µM
12,O=C(CN(C(=O)Cn1ccnn1)c1ccc(-c2ccccn2)cc1)N1CCNCC1,> 99.5 µM
13,O=C(Cc1cc(Cl)cc(Nc2ncnc(Cl)c2Cl)c1)Nc1cncc2ccccc12,2.06 µM
14,O=C(Nc1cncc2ccccc12)c1ccnc2cc(Cl)c(Cl)cc12,28.1 µM
15,O=C(Cc1cccc(Cl)c1)Nc1cncc2c1CCC2,5.16 µM
16,CC(C)(C)c1ccc(N(C(=O)c2ccco2)C(C(=O)NCCc2cccc(F)c2)c2coc3ccccc23)cc1 (centres undefined),> 99.5 µM
17,CN(Cc1nc2ccccc2s1)C(=O)c1ccc2c(c1)nnn2C,> 99.5 µM
18,N#CC1(CS(=O)(=O)N2Cc3ccc(Cl)cc3[C@H](C(=O)Nc3cncc4ccccc34)C2)CCOCC1 (stereo in doubt),0.06 µM and 0.0875 µM
19,O=C(NCCc1cccc(F)c1)C(c1cccnc1)N(C(=O)c1cocn1)C1CCN(c2ccccc2)C1 (centres undefined),> 99.5 µM
20,C=CC(=O)N(Cc1cccc(Cl)c1)C(C(=O)NCCc1cccc(F)c1)c1cnccc1C (centres undefined),> 99.5 µM
21,CC(C)(O)c1ccc2cncc(NC(=O)C3CN(S(=O)(=O)CC4(C#N)CC4)Cc4ccc(Cl)cc43)c2c1 (centres undefined),1.14 µM
22,N#Cc1ccc(N(C(=O)c2ccco2)C(C(=O)NCCc2cccc(F)c2)c2cccnc2)cc1 (centres undefined),10.4 µM
23,CN(C)S(=O)(=O)N1CCN(C(=O)C2Nc3ccccc3S(=O)(=O)N2)CC1 (centres undefined),> 99.5 µM
24,CS(=O)(=O)Nc1cccc(C2=NN(C(=O)CCl)C(c3ccccc3)C2)c1 (centres undefined),5.83 µM
25,O=C(Nc1[nH]nc2cccnc12)C1CCOc2ccc(Cl)cc21 (centres undefined),> 99.5 µM

row,SMILES,IC50
1,COc1ccccc1OC1CN(C(=O)c2cc(=O)[nH]c3ccccc23)C1,> 99.5 µM
2,O=C(NCCc1cccc(F)c1)C(c1cccnc1)N(C(=O)c1cocn1)c1ccc(Cn2cccn2)cc1 (centres undefined),8.34 µM
3,Cn1ccc2cncc(NC(=O)Cc3cccc(Cl)c3)c21,1.45 µM
4,CCC(c1ccncc1)N(C)C(=O)Cc1c[nH]c2ncccc12 (centres undefined),> 99.5 µM
5,CCC(=O)Nc1ccc(N(Cc2cscn2)C(=O)Cn2nnc3ccccc32)cc1,25 µM
6,COc1nccnc1C(C(=O)NCCc1cccc(F)c1)N(C(=O)c1cocn1)c1ccc(C(C)(C)C)cc1 (centres undefined),94.9 µM
7,O=C(Nc1cncc2ccccc12)C1CCN(Cc2cnc[nH]2)c2ccc(Cl)cc21 (centres undefined),1.12 µM
8,CCNc1ncc(C#N)cc1CN1CCN(C(=O)CCl)CC1,3.22 µM
9,O=C(Cc1cc(Cl)cc(Nc2cccc(F)c2[N+](=O)[O-])c1)Nc1cncc2ccccc12,1.99 µM
10,O=C(Cc1cncc2ccccc12)Nc1cc(Cl)cc(OC2CCC(=O)N2)c1 (centres undefined),38.4 µM
11,CC(C)(C)c1ccc(N(C(=O)c2ccco2)C(C(=O)Nc2ccccc2)c2cccnc2)cc1 (centres undefined),11.2 µM
12,Cc1ccncc1NC(=O)N(C)c1cccc(Cl)c1,> 99.5 µM
13,COc1cc(Nc2cc(Cl)cc(CC(=O)Nc3cncc4ccccc34)c2)c(Cl)cc1Cl,6.8 µM
14,COc1cc(Cl)cc(CC(=O)Nc2cnccc2C)c1,36.8 µM
15,CNC(=O)CN1Cc2ccc(Cl)cc2C2(CCN(c3cncc4ccc(OCCN(C)C)cc34)C2=O)C1 (centres undefined),0.21 µM
16,COc1cccc(CC(=O)Nc2cncc3ccccc23)c1,30.5 µM
17,CC(CCc1ccccc1)N1CCN(C(=O)CCl)CC1 (centres undefined),20.3 µM
18,O=C(NCCc1cccc(F)c1)C(c1cccnc1)N(C(=O)c1cnc[nH]1)c1ccc2ncsc2c1 (centres undefined),> 99 µM
19,CCS(=O)(=O)c1c(Cl)cccc1CNC(c1cccc(F)c1)C1CC1 (centres undefined),> 99.5 µM
20,Cc1cc(C(=O)Nc2cnc3nccn3c2)nn1-c1ccc(F)cc1,> 99.5 µM
21,O=C(/C=C/c1ccccc1)N1CCN(S(=O)(=O)c2cccc(F)c2)CC1,> 99.5 µM
22,Cc1ccncc1NC(=O)CC(C)C(C)C (centres undefined),> 99 µM
23,O=C(Cc1cc(Cl)cc(Nc2ncc(Br)nc2Cl)c1)Nc1cncc2ccccc12,1.71 µM
24,O=C(Nc1cncc2ccccc12)C1CN(S(=O)(=O)NC2CCC2)Cc2ccc(Cl)cc21 (centres undefined),0.0999 µM and 0.132 µM and 0.127 µM
